From patent US8592629B2, “Sulfonamide derivatives as Nav 1.7 inhibitors” (Pfizer Limited, priority 2010, dated 2013)

Molecular target: T1, Nav1.7 (or SCN9A) channel (Homo sapiens, UniProt Q15858)
T1 construct: expressed in transfected cells
Assay: Nav1.7 (hSCN9A) block in HEK cells, PatchXpress 7000 automated electrophysiology, estimated IC50 (EIC50)
Assay type: cell-based
Details: PatchXpress assay; HEK cells stably transfected with hSCN9A, voltage-clamped at V1/2 of inactivation
Procedure: The ability of the compounds of formula (I) to block the Nav1.7 (or SCN9A) channel were measured using the assay described below.
Human Embryonic Kidney (HEK) cells were transfected with an hSCN9A construct using lipofectamine reagent (Invitrogen), using standard techniques. Cells stably expressing the hSCN9A constructs were identified by their resistance to G-418 (400 μg/ml). Clones were screened for expression using the whole-cell voltage-clamp technique.
HEK cells stably transfected with hSCN9A were maintained in DMEM medium supplemented with 10% heat-inactivated fetal bovine serum and 400 μg/ml G-418 in an incubator at 37° C. with a humidified atmosphere of 10% CO2. For HTS, cells were harvested from flasks by trypsinization and replated in an appropriate multi-well plate (typically 96 or 384 wells/plate) such that confluence would be achieved within 24 hours of plating. For electrophysiological studies, cells were removed from the culture flask by brief trypsinization and re-plated at low density onto glass cover slips. Cells were typically used for electrophysiological experiments within 24 to 72 hours after plating.
HEK cells stably transfected with hSCN9A were viewed under Hoffman contrast optics and placed in front of an array of flow pipes emitting either control or compound-containing extracellular solutions. All compounds were dissolved in dimethyl sulfoxide to make 10 mM stock solutions, which were then diluted into extracellular solution to attain the final concentrations desired. […] The voltage-dependence of inactivation was determined by applying a series of depolarizing prepulses (8 sec long in 10 mV increments) from a negative holding potential. The voltage was then immediately stepped to 0 mV to assess the magnitude of the sodium current. Currents elicited at 0 mV were plotted as a function of prepulse potential to allow estimation of the voltage at which 50% of the channels were inactivated (midpoint of inactivation or V1/2). Compounds were tested for their ability to inhibit hSCN9A sodium channels by activating the channel with a 20 msec voltage step to 0 mV following an 8 second conditioning prepulse to the empirically determined V1/2. Compound effect (% inhibition) was determined by difference in current amplitude before and after application of test compounds. For ease of comparison, “estimated IC-50” (EIC50) values were calculated from single point electrophysiology data by the following equation, (tested concentration, uM) X (100-% inhibition/% inhibition). Inhibition values <20% and >80% were excluded from the calculation.
Electrophysiological assays were conducted with PatchXpress 7000 hardware and associated software (Molecular Devices Corp). All assay buffers and solutions were identical to those used in conventional whole-cell voltage clamp experiments described above. hSCN9A cells were grown as above to 50%-80% confluency and harvested by trypsinization. Trypsinized cells were washed and resuspended in extracellular buffer at a concentration of 1×10^6 cells/ml. The onboard liquid handling facility of the PatchXpress was used for dispensing cells and application of test compounds. Determination of the voltage midpoint of inactivation was as described for conventional whole-cell recordings. Cells were then voltage-clamped to the empirically determined V1/2 and current was activated by a 20 msec voltage step to 0 mV.
Compounds of the Examples were tested in the assays described above and found to have the Nav1.7 EIC50 (μM) values specified in the table below. All data are derived from the PatchXpress assay unless explicitly stated otherwise.

T1 sequence (Q15858 whole entry): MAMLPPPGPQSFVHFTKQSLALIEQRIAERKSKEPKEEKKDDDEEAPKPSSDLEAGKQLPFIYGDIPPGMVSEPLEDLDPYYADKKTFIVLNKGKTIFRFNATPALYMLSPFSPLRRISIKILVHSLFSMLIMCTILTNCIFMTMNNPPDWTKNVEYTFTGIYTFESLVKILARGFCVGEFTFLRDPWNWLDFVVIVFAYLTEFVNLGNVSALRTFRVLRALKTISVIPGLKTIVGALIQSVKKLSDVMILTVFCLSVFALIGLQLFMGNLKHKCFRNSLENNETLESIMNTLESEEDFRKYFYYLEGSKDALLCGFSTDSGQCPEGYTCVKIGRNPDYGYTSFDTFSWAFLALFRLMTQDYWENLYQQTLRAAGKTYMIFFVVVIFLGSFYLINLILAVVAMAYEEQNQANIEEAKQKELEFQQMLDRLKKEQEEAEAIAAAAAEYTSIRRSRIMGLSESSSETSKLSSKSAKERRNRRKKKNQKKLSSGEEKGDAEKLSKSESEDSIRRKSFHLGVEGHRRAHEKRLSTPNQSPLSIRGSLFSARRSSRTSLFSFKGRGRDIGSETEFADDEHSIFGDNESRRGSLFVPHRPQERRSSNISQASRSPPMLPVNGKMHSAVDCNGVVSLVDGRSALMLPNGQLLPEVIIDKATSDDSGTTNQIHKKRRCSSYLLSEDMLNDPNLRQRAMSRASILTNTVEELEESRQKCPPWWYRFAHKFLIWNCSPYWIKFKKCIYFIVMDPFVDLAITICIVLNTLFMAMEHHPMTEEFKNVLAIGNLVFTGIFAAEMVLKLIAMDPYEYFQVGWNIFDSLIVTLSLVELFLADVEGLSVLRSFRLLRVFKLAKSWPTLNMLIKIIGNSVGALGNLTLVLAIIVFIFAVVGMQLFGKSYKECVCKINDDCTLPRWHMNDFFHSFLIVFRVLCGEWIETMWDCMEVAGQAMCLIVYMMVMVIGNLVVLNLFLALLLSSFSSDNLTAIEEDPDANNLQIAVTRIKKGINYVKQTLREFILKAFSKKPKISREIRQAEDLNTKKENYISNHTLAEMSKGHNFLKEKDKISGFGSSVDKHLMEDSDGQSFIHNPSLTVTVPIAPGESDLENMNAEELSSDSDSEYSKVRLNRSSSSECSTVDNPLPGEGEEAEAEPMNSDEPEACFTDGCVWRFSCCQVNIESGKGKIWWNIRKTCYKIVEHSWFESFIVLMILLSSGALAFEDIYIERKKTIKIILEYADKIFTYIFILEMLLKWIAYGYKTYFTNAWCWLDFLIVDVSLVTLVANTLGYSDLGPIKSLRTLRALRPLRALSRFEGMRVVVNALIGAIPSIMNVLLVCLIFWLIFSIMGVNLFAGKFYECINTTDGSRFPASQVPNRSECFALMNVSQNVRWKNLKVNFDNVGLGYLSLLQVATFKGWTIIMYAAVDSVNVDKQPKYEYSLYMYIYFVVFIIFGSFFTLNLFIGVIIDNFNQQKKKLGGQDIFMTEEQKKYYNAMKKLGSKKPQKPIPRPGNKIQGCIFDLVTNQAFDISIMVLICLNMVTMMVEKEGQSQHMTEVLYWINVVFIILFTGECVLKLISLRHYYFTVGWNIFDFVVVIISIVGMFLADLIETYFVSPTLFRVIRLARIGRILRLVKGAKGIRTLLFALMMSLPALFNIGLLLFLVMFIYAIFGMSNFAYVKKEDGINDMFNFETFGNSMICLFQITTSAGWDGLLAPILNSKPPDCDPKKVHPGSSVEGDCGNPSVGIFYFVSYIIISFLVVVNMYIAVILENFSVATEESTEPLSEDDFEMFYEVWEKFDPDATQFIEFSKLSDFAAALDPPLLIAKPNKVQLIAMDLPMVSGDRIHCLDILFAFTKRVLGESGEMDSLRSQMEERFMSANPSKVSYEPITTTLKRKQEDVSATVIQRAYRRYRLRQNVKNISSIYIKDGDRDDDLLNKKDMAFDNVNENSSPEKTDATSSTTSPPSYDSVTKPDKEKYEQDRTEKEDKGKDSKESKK

Row | IC50 | Compound
1 | 0.041 µM | CS(=O)(=O)NC(=O)c1cc(F)c(Oc2cnc(OCC3CC3)c(Cl)c2)cc1F [Example 35, 4-{[5-chloro-6-(cyclopropylmethoxy)pyridin-3-yl]oxy}-2,5-difluoro-N-(methylsulfonyl)benzamide]
2 | 0.31 µM | CC(C)Oc1ncc(Oc2ccc(C(=O)NS(C)(=O)=O)c(F)c2)cc1Cl [Example 36, 4-[(5-chloro-6-isopropoxypyridin-3-yl)oxy]-2-fluoro-N-(methylsulfonyl)benzamide]
3 | 0.14 µM | CS(=O)(=O)NC(=O)c1cc(Cl)c(Oc2cnc(OC3CCOCC3)c(Cl)c2)cc1F [Example 37, 5-chloro-4-{[5-chloro-6-(tetrahydro-2H-pyran-4-yloxy)pyridin-3-yl]oxy}-2-fluoro-N-(methylsulfonyl)benzamide]
4 | 0.025 µM | CC(C)Oc1ncc(Oc2cc(F)c(C(=O)NS(C)(=O)=O)cc2Cl)cc1Cl [Example 39, 5-chloro-4-[(5-chloro-6-isopropoxypyridin-3-yl)oxy]-2-fluoro-N-(methylsulfonyl)benzamide]
5 | 0.011 µM | CC(Oc1ncc(Oc2cc(F)c(C(=O)NS(C)(=O)=O)cc2Cl)cc1Cl)C(F)(F)F (stereo not drawn) [Example 43, 5-chloro-4-{[5-chloro-6-(2,2,2-trifluoro-1-methylethoxy)pyridin-3-yl]oxy}-2-fluoro-N-(methylsulfonyl)benzamide]
6 | 0.56 µM | CC(F)(F)c1ncc(Oc2cc(F)c(C(=O)NS(C)(=O)=O)cc2Cl)cc1Cl [Example 44, 5-chloro-4-{[5-chloro-6-(1,1-difluoroethyl)pyridin-3-yl]oxy}-2-fluoro-N-(methylsulfonyl)benzamide]
7 | 0.11 µM | CS(=O)(=O)NC(=O)c1cc(F)c(Oc2cnc(OCC(F)(F)C(F)F)c(Cl)c2)cc1F [Example 45, 4-{[5-chloro-6-(2,2,3,3-tetrafluoropropoxy)pyridin-3-yl]oxy}-2,5-difluoro-N-(methylsulfonyl)benzamide]
8 | 3.5 µM | CC(C)(O)c1ncc(Oc2cc(F)c(C(=O)NS(C)(=O)=O)cc2Cl)cc1Cl [Example 48, 5-chloro-4-{[5-chloro-6-(1-hydroxy-1-methylethyl)pyridin-3-yl]oxy}-2-fluoro-N-(methylsulfonyl)benzamide]
9 | 0.76 µM | CC(C)Cc1ncc(Oc2cc(F)c(C(=O)NS(C)(=O)=O)cc2F)cc1Cl [Example 49, 4-[(5-chloro-6-isobutylpyridin-3-yl)oxy]-2,5-difluoro-N-(methylsulfonyl)benzamide]
10 | 0.27 µM | CC(C)(C)c1ncc(Oc2cc(F)c(C(=O)NS(C)(=O)=O)cc2F)cc1Cl [Example 51, 4-[(6-tert-butyl-5-chloropyridin-3-yl)oxy]-2,5-difluoro-N-(methylsulfonyl)benzamide]
11 | 0.16 µM | CS(=O)(=O)NC(=O)c1cc(Cl)c(Oc2cnc(OCC(F)F)c(Cl)c2)cc1F [Example 52, 5-chloro-4-{[5-chloro-6-(2,2-difluoroethoxy)pyridin-3-yl]oxy}-2-fluoro-N-(methylsulfonyl)benzamide]
12 | 0.048 µM | CS(=O)(=O)NC(=O)c1cc(Cl)c(Oc2cnc(OC3CC3)c(Cl)c2)cc1F [Example 55, 5-chloro-4-{[5-chloro-6-(cyclopropyloxy)pyridin-3-yl]oxy}-2-fluoro-N-(methylsulfonyl)benzamide]
13 | 0.094 µM | CC(C)(F)COc1ncc(Oc2cc(F)c(C(=O)NS(C)(=O)=O)cc2Cl)cc1Cl [Example 57, 5-chloro-4-{[5-chloro-6-(2-fluoro-2-methylpropoxy)pyridin-3-yl]oxy}-2-fluoro-N-(methylsulfonyl)benzamide]
14 | 0.023 µM | CS(=O)(=O)NC(=O)c1cc(Cl)c(Oc2cnc(OCC(F)(F)F)c(Cl)c2)cc1F [Example 58, 5-chloro-4-{[5-chloro-6-(2,2,2-trifluoroethoxy)pyridin-3-yl]oxy}-2-fluoro-N-(methylsulfonyl)benzamide]
15 | 0.14 µM | CC(C)C(F)(F)c1ncc(Oc2cc(F)c(C(=O)NS(C)(=O)=O)cc2Cl)cc1Cl [Example 60, 5-chloro-4-{[5-chloro-6-(1,1-difluoro-2-methylpropyl)pyridin-3-yl]oxy}-2-fluoro-N-(methylsulfonyl)benzamide]
16 | 5.5 µM | CC(C)Oc1ncc(Oc2cc(F)c(C(=O)NS(C)(=O)=O)cc2Cl)cn1 [Example 61, 5-chloro-2-fluoro-4-[(2-isopropoxypyrimidin-5-yl)oxy]-N-(methylsulfonyl)benzamide]
17 | 0.16 µM | CC(C)(F)COc1ncc(Oc2cc(F)c(C(=O)NS(C)(=O)=O)cc2F)cc1Cl [Example 63, 4-{[5-chloro-6-(2-fluoro-2-methylpropoxy)pyridin-3-yl]oxy}-2,5-difluoro-N-(methylsulfonyl)benzamide]

Further lines, the compound ahead of its results:

Row | Compound | IC50
18 | CC(C)Oc1ncc(Oc2c(F)cc(C(=O)NS(C)(=O)=O)cc2F)cc1Cl [Example 32, 4-[(5-chloro-6-isopropoxypyridin-3-yl)oxy]-3,5-difluoro-N-(methylsulfonyl)benzamide] | 0.34 µM
19 | CC(C)Oc1ncc(Oc2ccc(C(=O)NS(C)(=O)=O)cc2F)cc1Cl [Example 33, 4-[(5-chloro-6-isopropoxypyridin-3-yl)oxy]-3-fluoro-N-(methylsulfonyl)benzamide] | 0.7 µM
20 | CC(C)(C)Oc1ncc(Oc2cc(F)c(C(=O)NS(C)(=O)=O)cc2F)cc1Cl [Example 34, 4-[(6-tert-butoxy-5-chloropyridin-3-yl)oxy]-2,5-difluoro-N-(methylsulfonyl)benzamide] | 0.033 µM
21 | CC(C)COc1ncc(Oc2cc(F)c(C(=O)NS(C)(=O)=O)cc2Cl)cc1Cl [Example 38, 5-chloro-4-[(5-chloro-6-isobutoxypyridin-3-yl)oxy]-2-fluoro-N-(methylsulfonyl)benzamide] | 0.0075 µM
22 | [2H]C([2H])([2H])C([2H])(Oc1ncc(Oc2cc(F)c(C(=O)NS(C)(=O)=O)cc2F)cc1Cl)C([2H])([2H])[2H] [Example 40, -({5-chloro-6-[d7-propan-2-yloxy]pyridin-3-yl}oxy)-2,5-difluoro-N-(methylsulfonyl)benzamide] | 0.13 µM
23 | [2H]C(C)(C)Oc1ncc(Oc2cc(F)c(C(=O)NS(C)(=O)=O)cc2F)cc1Cl [Example 41, 4-({5-chloro-6-[2-d1-propan-2-yloxy]pyridin-3-yl}oxy)-2,5-difluoro-N-(methylsulfonyl)benzamide] | 0.19 µM
24 | CC(C)Oc1ccc(Oc2cc(F)c(C(=O)NS(C)(=O)=O)cc2F)cn1 [Example 47, 2,5-difluoro-4-[(6-isopropoxypyridin-3-yl)oxy]-N-(methylsulfonyl)benzamide] | 0.68 µM
25 | CS(=O)(=O)NC(=O)c1cc(F)c(Oc2cnc(C3CC3)c(Cl)c2)cc1F [Example 50, 4-[(5-chloro-6-cyclopropylpyridin-3-yl)oxy]-2,5-difluoro-N-(methylsulfonyl)benzamide] | 0.16 µM
26 | CS(=O)(=O)NC(=O)c1cc(Cl)c(Oc2cnc(OC(CF)CF)c(Cl)c2)cc1F [Example 53, 5-chloro-4-({5-chloro-6-[2-fluoro-1-(fluoromethyl)ethoxy]pyridin-3-yl}oxy)-2-fluoro-N-(methylsulfonyl)benzamide] | 0.26 µM
27 | CS(=O)(=O)NC(=O)c1cc(Cl)c(Oc2cnc(OC(F)F)c(Cl)c2)cc1F [Example 54, 5-chloro-4-{[5-chloro-6-(difluoromethoxy)pyridin-3-yl]oxy}-2-fluoro-N-(methylsulfonyl)benzamide] | 0.18 µM
28 | CS(=O)(=O)NC(=O)c1cc(Cl)c(Oc2cnc(OCC(F)(F)C(F)(F)F)c(Cl)c2)cc1F [Example 56, 5-chloro-4-{[5-chloro-6-(2,2,3,3,3-pentafluoropropoxy)pyridin-3-yl]oxy}-2-fluoro-N-(methylsulfonyl)benzamide] | 0.013 µM
29 | CS(=O)(=O)NC(=O)c1cc(F)c(Oc2cnc(OCCC(F)(F)F)c(Cl)c2)cc1F [Example 62, 4-{[5-chloro-6-(3,3,3-trifluoropropoxy)pyridin-3-yl]oxy}-2,5-difluoro-N-(methylsulfonyl)benzamide] | 0.24 µM
30 | CS(=O)(=O)NC(=O)c1cc(F)c(Oc2cnc(OCC(F)(F)C(F)(F)F)c(Cl)c2)cc1F [Example 64, 4-{[5-chloro-6-(2,2,3,3,3-pentafluoropropoxy)pyridin-3-yl]oxy}-2,5-difluoro-N-(methylsulfonyl)benzamide] | 0.028 µM
